Test in all cases: NCI anticancer screen, dose series, 48 h
The test system of assay [1] is ACHN renal.
Assay [2] relates to DMS 114 small cell lung.
For assay [3], the system named is LXFL 529 NSCLC.
Assay [4] has as its system M19-MEL melanoma.
Assay [5] deals with NCI-H226 lung.
Assay [6] concerns OVCAR-3 ovarian.
Assay [7] deals with SK-MEL-2 melanoma.
In assay [8] the test system is SK-OV-3 ovarian.
In assay [9] the test system is SNB-78 CNS.
The test system of assay [10] is TK-10 renal.
Assay [11] deals with U251 CNS.
The test system of assay [12] is UACC-257 melanoma.

Consider eleven compounds from PubChem BioAssay (NCI).

Molecules are shown by their SMILES.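 Exposure lasted 48 hours, with cells grown in 96-well plates and compounds tested at five concentrations. Definition used: TGI = concentration required for complete inhibition of growth.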

As for `CCCCc1c2c(nc3c1CCCC3O)/C(=C/c1ccccc1)CCC2` (stereo unspecified), the TGI in [1] is over 100 µM; in assay [2] it was 53.1 µM; in assay [3] it was over 100 µM; in [4], 57.1 µM; in [5], 68 µM; in assay [6], 35.9 µM. Further, the TGI in assay [7] was 51.7 µM; in assay [8] it was over 100 µM; in assay [9], over 100 µM; in assay [10], 74.7 µM; in assay [11], 64.1 µM; in [12] it was 96.6 µM.
With `COc1cccc(NC(=S)Nn2c(C)nc3ccccc3c2=O)c1`, the TGI in assay [1], in [2], in assay [3], in assay [4], in assay [5] and in assay [7] was over 100 µM each time. In addition, the TGI in assay [8], in assay [10], in assay [11] and in assay [12] was over 100 µM in each case.
Take `CCCCC(C)C1CCC2(C)C=CC(=O)C(C)=C2C1O` (stereo unspecified): the TGI in assay [2], in assay [4], in assay [5], in assay [6], in assay [7] and in assay [8] was over 100 µM each time. Besides, the TGI in assay [9], in [11] and in assay [12] was over 100 µM each time.
For `CCCn1c(SCC)c2ccccc2c1-c1nc(F)nc(F)n1`, the TGI in [1], in assay [2], in [3], in assay [4], in assay [5] and in assay [6] was over 100 µM each time. In addition, the TGI in [7], in assay [9], in [10] and in [11] was over 100 µM in each case.
On to `CC(C)(C)c1nc2c(o1)C(=O)c1ccccc1C2=O`, for which the TGI was found to be 5.69 µM in assay [1]; 5.89 µM in [2]; 18.1 µM in assay [3]; 2.84 µM in [4]; 6.36 µM in assay [5]; 2.03 µM in [6]. Further, the TGI is 1.83 µM in [7]; 10.2 µM in assay [8]; 39.1 µM in assay [9]; 11.7 µM in assay [10]; 4.6 µM in assay [11]; 1.43 µM in [12].
For the compound `Clc1ccc(SCCSCCCCCCCCCCSCCSc2ccc(Cl)cc2)cc1`, the TGI in assay [1], in assay [2], in assay [5], in assay [6], in [7] and in assay [8] was over 100 µM in each case. For the same compound, the TGI in assay [9], in [10], in [11] and in [12] was over 100 µM throughout.
Regarding `COC(OC)c1cccc2c1C(=O)CCC1(O)c3ccccc3C1C2` (stereo unspecified), the TGI in assay [2], in [3], in [4], in [5], in assay [6] and in assay [7] was over 100 µM throughout. Moreover, the TGI in assay [8], in [9], in [10] and in assay [12] was over 100 µM in each case.
On to `COc1ccc(C2C3C(=O)C=CC(=O)C3[C@@H]2C)cc1OC` (stereo partly specified), for which the TGI in [1], in [2], in assay [3], in assay [4], in assay [5] and in assay [6] was over 100 µM each time. For the same compound, the TGI in assay [7], in assay [8], in assay [9], in assay [10], in [11] and in assay [12] was over 100 µM in each case.
In the case of `COc1cc2c(c(C)c1O)[C@H]1COc3ccccc3[C@H]1O2`, the TGI in [1] is over 100 µM; in assay [2] it was 47.6 µM; in assay [3] it was 31.1 µM; in [4], 25 µM; in [5] it was 34.5 µM; in [6] it was over 100 µM. Further, the TGI is over 100 µM in assay [7]; over 100 µM in [8]; 80.7 µM in assay [9]; 80.8 µM in [10]; 52.9 µM in assay [12].
As for `NC(=O)N1N=C2c3ccccc3CC[C@@H]2C1c1ccccc1` (stereo partly specified), the TGI in assay [1], in [2], in [3], in assay [4], in assay [5] and in [6] was over 100 µM each time. Besides, the TGI in assay [7], in [8], in assay [9], in assay [10], in [11] and in [12] was over 100 µM throughout.
For the compound `N#Cc1c(-c2ccco2)cc(-c2ccc(NCc3nc4ccccc4[nH]3)cc2)nc1N`, the TGI in assay [1] was over 100 µM; in assay [3], 42 µM; in assay [4] it was 63.4 µM; in [6] it was 41.8 µM; in [7], 40.3 µM; in assay [8] it was over 100 µM. Also, the TGI was 86.2 µM in assay [10] and over 100 µM in assay [11].
